Experimental data as given in publication PMC12421852, “AcrIF11 is a potent CRISPR-specific ADP-ribosyltransferase encoded by phage and plasmid” (mBio, 2025).

Target: T1, AcrIF11Pae2 (Escherichia coli, UniProt A0AAB0B261)
T1 construct: pET28b in E. coli BL21(DE3); 13C/15N-labelled
Experiment: NMR chemical shift perturbation on NAD titration
Format: binding
Details: NMR structure 8DWQ is without NAD; structure sample 50 mM KPi pH 7.4, 298 K; titration conditions not stated

T1 sequence (A0AAB0B261 entry or part of it): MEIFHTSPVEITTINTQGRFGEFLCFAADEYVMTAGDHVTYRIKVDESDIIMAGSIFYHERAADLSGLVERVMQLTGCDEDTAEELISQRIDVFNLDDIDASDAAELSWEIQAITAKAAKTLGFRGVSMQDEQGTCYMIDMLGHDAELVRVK

With NC(=O)c1ccc[n+]([C@@H]2O[C@H](COP(=O)(O)OP(=O)(O)OC[C@H]3O[C@@H](n4cnc5c(N)ncnc54)[C@H](O)[C@@H]3O)[C@@H](O)[C@H]2O)c1 [NAD] the “NMR chemical shift perturbation on NAD titration” value was “upon titration of cofactor NAD, the largest chemical shift perturbations occurred in the beta sheet region”.
